Reference: publication PMC11641657, “Innovative Approaches to Fucoxanthin Delivery: Characterization and Bioavailability of Solid Lipid Nanoparticles with Eco-Friendly Ingredients and Enteric Coating” (International Journal of Molecular Sciences, 2024)

How the values were obtained:
[1] = Morphology by TEM and SEM; type: physicochemical; conditions: in aqueous medium
Description: The samples were analyzed by means of a transmission electron microscopy (TEM) (Thermo Scientific Talos F200C) operating at 80 KV. For TEM analysis, the samples were placed on copper grids XP-UC300 (Shanghai X-Pivot Optoelectronic Technology Co., Ltd., Shanghai, China). Scanning Electron Microscopy (SEM) was used to determine the structure of the lyophilized FN–SLN. FN–SLN was dispersed in water and spread on a double-sided conducting adhesive tape, then was pasted on a metallic stub. After drying, it was coated ([…]) with gold in a sputter coating unit for […] using an accelerated voltage of 15 KeV.

[2] = parameters: method as in PMID 11694619; conditions: one of the lowest among studied carotenoids; cited from earlier work
[3] = In vivo pharmacokinetics test, oral dosing, FNOH in plasma by LC-MS/MS; conditions: after oral 10 mg/kg, parent FN
Description: The qualification and quantification of FN and FNOH in plasma samples was conducted using Nexera LC-40 (Shimadzu UPLC, Kyoto, Japan) coupled with AB 6500+ Q-trap mass spectrometry (ABSCIEX, Framinham, MA, USA), which was equipped with electrospray ionization (ESI). The mobile phase was composed of H2O (A: 0.1% formic acid and acetonitrile (B, 0.1% formic acid; A:B = 10:90, v/v) at a flow rate of 0.35 mL/min, and the injection volume was 5 µL. The analysis utilized a Kinetex EVO C18 column (2.1 mm × 100 mm, 2.6 μm) Phenomenex, Torrance, CA, USA), which was maintained at a temperature of 25 °C. The detection of the compounds (Table 6) was performed in positive ion mode under the following conditions: curtain gas at 35.0 L/h, collision gas medium, ion spray voltage at 5000 V, temperature at 400 °C, and ion source gases 1 and 2 both at 55 L/h. […] The data was acquired using AB Analyst 1.6.1 software (ABSCIEX, USA).
They were provided with standard rat chow and water and libitum throughout the study. The rats were acclimatized to the laboratory environment for 7 days prior to the start of the experiment to minimize stress-induced effects. […]
The plasma drug concentration data were fitted using a non-compartmental model, and pharmacokinetic parameters were calculated via Phoenix WinNonlin 8.1 (Certara Corporation, Princeton, NJ, USA).

[4] = In vitro dissolution test with enteric-coated capsule (SGF then SIF); type: physicochemical
Description: In this study, 7.8 mg of FN–SLNs and FN crystals were encapsulated in separate enteric-coated capsules. The capsules were placed in a glass bottle containing 2 mL of SGF and maintained at 37 °C, stirring at 120 rpm for the first 2 h. During this period, 100 µL samples were collected at predetermined intervals to assess the dissolution profiles of both formulations. Each time a sample was taken, 100 µL of the corresponding fluid was added to maintain the total volume. […] Following this, the SGF was replaced with 2 mL of SIF, and sampling continued at specified intervals. After each sampling, the collected solutions were centrifuged for 2 min (5000 rpm, 4 °C) to separate any undissolved particles. The supernatants were then extracted using methanol, allowing for the quantification of FN using high-performance liquid chromatography (HPLC).

[5] = In vitro release study (dialysis cassette, SGF then SIF); type: physicochemical; conditions: 2 h SGF then SIF, 37 °C
Description: A 3 mL dispersion of solid lipid nanoparticles (SLNs) and fucoxanthin (FN) crystal at a concentration of 1 mg/mL/FN was placed in separate dialysis cassettes (Slide-A-Lyzer, Thermo Fisher Scientific, USA) with a molecular weight cutoff (MWCO) of 20 KDa. Each cassette was then immersed in 120 mL of release medium, consisting of 60% ethanol and 40% SGF, and maintained at 37 °C with a stirring speed of 120 rpm for the first 2 h. An appropriate amount of ethanol is necessary to be added to improve the release of FN in a water-based environment. Two hours later, SGF was replaced with SIF. Samples of 10 µL were periodically withdrawn from the internal compartment of the dialysis cassette, using methanol for extraction and dilution to determine the concentration of fucoxanthin. The remaining FN% was calculated with the following equation:(3) Releasing FX%=(1−Mt/M0)×100% where: M0 is the initial amount of FN, and Mt is the amount of FN calculated at a given incubation time.

[6] = Dispersion in ultra-pure water; type: physicochemical; conditions: visual

SMILES: CC(=O)O[C@H]1CC(C)(C)C(=C=C/C(C)=C/C=C/C(C)=C/C=C/C=C(C)/C=C/C=C(\C)C(=O)C[C@@]23O[C@]2(C)C[C@@H](O)CC3(C)C)[C@](C)(O)C1 [FN, Fucoxanthin]
- Overall average length of crystals [1]: exceeding 5 µm
- Bioavailability [2]: ~ 50 pmol/mg protein
- Concentration of FN in rat plasma [3]: below the lowest limit of quantitation
- Release rate throughout the 8-h observation period [4]: consistently low release rate
- Highest release rate in SGF and SIF [5]: 2.88%
- Dispersion in water [6]: inadequate
